Source: the NIST ThermoML archive (doi:10.1021/je8008073)

Assay: wn = mass fraction of the nth substance listed
Settings: Liquid; for mass density: Vibrating tube method; for viscosity: Falling or rolling sphere viscometry

c1ccc2c(c1)CCCC2 [1,2,3,4-tetrahydronaphthalene] + CCCCCCCCCCCC
Settings | mass density [kg/m3] | viscosity [mPa·s]
293.15 K, 100 kPa, w2 = 0.5 | 844.4 | –
293.15 K, 2000 kPa, w2 = 0.5 | 845.7 | –
293.15 K, 4000 kPa, w2 = 0.5 | 846.8 | –
293.15 K, 6000 kPa, w2 = 0.5 | 848 | –
293.15 K, 8000 kPa, w2 = 0.5 | 849.5 | –
293.15 K, 10000 kPa, w2 = 0.5 | 850.8 | –
293.15 K, 12000 kPa, w2 = 0.5 | 851.9 | –
293.15 K, 14000 kPa, w2 = 0.5 | 853.1 | –
293.15 K, 16000 kPa, w2 = 0.5 | 854.2 | –
293.15 K, 18000 kPa, w2 = 0.5 | 855.4 | –
293.15 K, 20000 kPa, w2 = 0.5 | 856.6 | –
295.65 K, 100 kPa, w2 = 0.5 | 842.4 | –
295.65 K, 2000 kPa, w2 = 0.5 | 843.6 | –
295.65 K, 4000 kPa, w2 = 0.5 | 844.9 | –
295.65 K, 6000 kPa, w2 = 0.5 | 846 | –
295.65 K, 8000 kPa, w2 = 0.5 | 847.4 | –
295.65 K, 10000 kPa, w2 = 0.5 | 848.6 | –
295.65 K, 12000 kPa, w2 = 0.5 | 849.8 | –
295.65 K, 14000 kPa, w2 = 0.5 | 851 | –
295.65 K, 16000 kPa, w2 = 0.5 | 852.1 | –
295.65 K, 18000 kPa, w2 = 0.5 | 853.3 | –
295.65 K, 20000 kPa, w2 = 0.5 | 854.4 | –
298.15 K, 100 kPa, w1 = 0.48 | 835.7 | –
298.15 K, 100 kPa, w1 = 0.49 | 838.4 | –
298.15 K, 100 kPa, w1 = 0.5 | 840.7 | –
298.15 K, 100 kPa, w1 = 0.51 | 842.7 | –
298.15 K, 100 kPa, w1 = 0.52 | 844.8 | –
298.15 K, 100 kPa, w2 = 0.5 | 840.7 | 1.46
298.15 K, 2000 kPa, w1 = 0.48 | 836.9 | –
298.15 K, 2000 kPa, w1 = 0.49 | 839.7 | –
298.15 K, 2000 kPa, w1 = 0.5 | 842 | –
298.15 K, 2000 kPa, w1 = 0.51 | 844 | –
298.15 K, 2000 kPa, w1 = 0.52 | 846.1 | –
298.15 K, 2000 kPa, w2 = 0.5 | 842 | –
298.15 K, 4000 kPa, w1 = 0.48 | 838.3 | –
298.15 K, 4000 kPa, w1 = 0.49 | 841 | –
298.15 K, 4000 kPa, w1 = 0.5 | 843.4 | –
298.15 K, 4000 kPa, w1 = 0.51 | 845.3 | –
298.15 K, 4000 kPa, w1 = 0.52 | 847.5 | –
298.15 K, 4000 kPa, w2 = 0.5 | 843.4 | 1.53
298.15 K, 6000 kPa, w1 = 0.48 | 839.6 | –
298.15 K, 6000 kPa, w1 = 0.49 | 842.2 | –
298.15 K, 6000 kPa, w1 = 0.5 | 844.7 | –
298.15 K, 6000 kPa, w1 = 0.51 | 846.5 | –
298.15 K, 6000 kPa, w1 = 0.52 | 848.7 | –
298.15 K, 6000 kPa, w2 = 0.5 | 844.7 | –
298.15 K, 8000 kPa, w1 = 0.48 | 840.9 | –
298.15 K, 8000 kPa, w1 = 0.49 | 843.5 | –
298.15 K, 8000 kPa, w1 = 0.5 | 845.9 | –
298.15 K, 8000 kPa, w1 = 0.51 | 847.8 | –
298.15 K, 8000 kPa, w1 = 0.52 | 849.9 | –
298.15 K, 8000 kPa, w2 = 0.5 | 845.9 | –
298.15 K, 10000 kPa, w1 = 0.48 | 842.1 | –
298.15 K, 10000 kPa, w1 = 0.49 | 844.7 | –
298.15 K, 10000 kPa, w1 = 0.5 | 847.1 | –
298.15 K, 10000 kPa, w1 = 0.51 | 848.8 | –
298.15 K, 10000 kPa, w1 = 0.52 | 851.1 | –
298.15 K, 10000 kPa, w2 = 0.5 | 847.1 | 1.64
298.15 K, 12000 kPa, w1 = 0.48 | 843.3 | –
298.15 K, 12000 kPa, w1 = 0.49 | 845.9 | –
298.15 K, 12000 kPa, w1 = 0.5 | 848.4 | –
298.15 K, 12000 kPa, w1 = 0.51 | 850.3 | –
298.15 K, 12000 kPa, w1 = 0.52 | 852.2 | –
298.15 K, 12000 kPa, w2 = 0.5 | 848.4 | –
298.15 K, 14000 kPa, w1 = 0.48 | 844.6 | –
298.15 K, 14000 kPa, w1 = 0.49 | 847.1 | –
298.15 K, 14000 kPa, w1 = 0.5 | 849.5 | –
298.15 K, 14000 kPa, w1 = 0.51 | 851.5 | –
298.15 K, 14000 kPa, w1 = 0.52 | 853.5 | –
298.15 K, 14000 kPa, w2 = 0.5 | 849.5 | –
298.15 K, 16000 kPa, w1 = 0.48 | 845.7 | –
298.15 K, 16000 kPa, w1 = 0.49 | 848.3 | –
298.15 K, 16000 kPa, w1 = 0.5 | 850.7 | –
298.15 K, 16000 kPa, w1 = 0.51 | 852.7 | –
298.15 K, 16000 kPa, w1 = 0.52 | 854.6 | –
298.15 K, 16000 kPa, w2 = 0.5 | 850.7 | –
298.15 K, 18000 kPa, w1 = 0.48 | 846.9 | –
298.15 K, 18000 kPa, w1 = 0.49 | 849.3 | –
298.15 K, 18000 kPa, w1 = 0.5 | 851.9 | –
298.15 K, 18000 kPa, w1 = 0.51 | 853.8 | –
298.15 K, 18000 kPa, w1 = 0.52 | 855.7 | –
298.15 K, 18000 kPa, w2 = 0.5 | 851.9 | –
298.15 K, 20000 kPa, w1 = 0.48 | 848.1 | –
298.15 K, 20000 kPa, w1 = 0.49 | 850.6 | –
298.15 K, 20000 kPa, w1 = 0.5 | 853 | –
298.15 K, 20000 kPa, w1 = 0.51 | 855 | –
298.15 K, 20000 kPa, w1 = 0.52 | 857 | –
298.15 K, 20000 kPa, w2 = 0.5 | 853 | –
300.65 K, 100 kPa, w2 = 0.5 | 838.8 | –
300.65 K, 2000 kPa, w2 = 0.5 | 840 | –
300.65 K, 4000 kPa, w2 = 0.5 | 841.3 | –
300.65 K, 6000 kPa, w2 = 0.5 | 842.5 | –
300.65 K, 8000 kPa, w2 = 0.5 | 843.8 | –
300.65 K, 10000 kPa, w2 = 0.5 | 845 | –
300.65 K, 12000 kPa, w2 = 0.5 | 846.3 | –
300.65 K, 14000 kPa, w2 = 0.5 | 847.5 | –
300.65 K, 16000 kPa, w2 = 0.5 | 848.8 | –
300.65 K, 18000 kPa, w2 = 0.5 | 849.9 | –
300.65 K, 20000 kPa, w2 = 0.5 | 851 | –
303.15 K, 100 kPa, w2 = 0.5 | 837.3 | –
303.15 K, 2000 kPa, w2 = 0.5 | 838.5 | –
303.15 K, 4000 kPa, w2 = 0.5 | 839.9 | –
303.15 K, 6000 kPa, w2 = 0.5 | 841.1 | –
303.15 K, 8000 kPa, w2 = 0.5 | 842.4 | –
303.15 K, 10000 kPa, w2 = 0.5 | 843.6 | –
303.15 K, 12000 kPa, w2 = 0.5 | 844.9 | –
303.15 K, 14000 kPa, w2 = 0.5 | 846.1 | –
303.15 K, 16000 kPa, w2 = 0.5 | 847.5 | –
303.15 K, 18000 kPa, w2 = 0.5 | 848.7 | –
303.15 K, 20000 kPa, w2 = 0.5 | 849.8 | –
